Literature values in US20100135983A1, “Anti-inflammatory compositions and methods” (Searete LLC, a limited liability corporation of the State …, priority 2008, published 2010).
Blank lines part the entries; values can stand above or below the compound they belong to.

How the values were obtained:
Src family kinase = conditions: also its dependent cellular responses
lethal septic shock = conditions: mice
[1] = single agent, infused at 400 mg over one hour
[2] = test system: Src family kinases (Src, Lck, Yes, Fyn); conditions: at nanomolar concentrations
Epha1 = conditions: at nanomolar concentrations
proteasome = conditions: cultured breast cancer cells; disulfiram bound to copper

- inhibition of CpG-induced Src family kinase activation (Src family kinase): does not inhibit
Compound: CCN(CC)CCCC(C)Nc1ccnc2cc(Cl)ccc12 (stereo not drawn) [Chloroquine]

Compound: Cl.Cl.Nc1ccccc1Oc1ccc2c(N)nsc2c1 [Example M62812, 3-amino-6-(2-aminophenoxy)-1,2-benzisothiazole dihydrochloride]
- prevention of lethal septic shock (lethal septic shock): prevents lethal septic shock

Compound: CCN(CC)CCCC(C)Nc1ccnc2cc(Cl)ccc12.O=P(O)(O)O.O=P(O)(O)O (stereo not drawn) [chloroquine phosphate, 7-chloro-4-[[4-(diethylamino)-1-methylbutyl]amino]quinoline phosphate (1:2)]
- tolerability of intravenous infusion [1]: without complication

Compound: Cc1nc(Nc2ncc(C(=O)Nc3c(C)cccc3Cl)s2)cc(N2CCN(CCO)CC2)n1.O [dasatinib, N-(2-chloro-6-methylphenyl)-2-[[6-[4-(2-hydroxyethyl)-1-piperazinyl]-2-methyl-4-pyrimidinyl]amino]-5-thiazolecarboxamide, monohydrate]
- inhibition of Src family kinases (Src, Lck, Yes, Fyn) [2]: inhibits
- inhibition of Epha1 (Epha1): inhibits

Compound: CCN(CC)C(=S)SSC(=S)N(CC)CC [disulfiram, 1-(diethylthiocarbamoyldisulfanyl)-N,N-diethyl-methanethioamide]
- proteasomal activity (proteasome): inhibits proteasomal activity
